Laboratory results as given in patent US20260226048A1, “MULTI-CYCLIC IRAK AND FLT3 INHIBITING COMPOUNDS AND USES THEREOF” (CHILDREN'S HOSPITAL MEDICAL CENTER, priority 2023, published 2026).

Key:
[1] = target: T1, FLT3 (Homo sapiens, UniProt P36888); assay: RBC HotSpot Kinase Assay, FLT3; format: biochemical; parameters: purchased Reaction Biology (RBC HotSpot); details: isolated kinase enzyme, 33P-ATP, P81 filter-binding
T1 sequence (P36888 27-993): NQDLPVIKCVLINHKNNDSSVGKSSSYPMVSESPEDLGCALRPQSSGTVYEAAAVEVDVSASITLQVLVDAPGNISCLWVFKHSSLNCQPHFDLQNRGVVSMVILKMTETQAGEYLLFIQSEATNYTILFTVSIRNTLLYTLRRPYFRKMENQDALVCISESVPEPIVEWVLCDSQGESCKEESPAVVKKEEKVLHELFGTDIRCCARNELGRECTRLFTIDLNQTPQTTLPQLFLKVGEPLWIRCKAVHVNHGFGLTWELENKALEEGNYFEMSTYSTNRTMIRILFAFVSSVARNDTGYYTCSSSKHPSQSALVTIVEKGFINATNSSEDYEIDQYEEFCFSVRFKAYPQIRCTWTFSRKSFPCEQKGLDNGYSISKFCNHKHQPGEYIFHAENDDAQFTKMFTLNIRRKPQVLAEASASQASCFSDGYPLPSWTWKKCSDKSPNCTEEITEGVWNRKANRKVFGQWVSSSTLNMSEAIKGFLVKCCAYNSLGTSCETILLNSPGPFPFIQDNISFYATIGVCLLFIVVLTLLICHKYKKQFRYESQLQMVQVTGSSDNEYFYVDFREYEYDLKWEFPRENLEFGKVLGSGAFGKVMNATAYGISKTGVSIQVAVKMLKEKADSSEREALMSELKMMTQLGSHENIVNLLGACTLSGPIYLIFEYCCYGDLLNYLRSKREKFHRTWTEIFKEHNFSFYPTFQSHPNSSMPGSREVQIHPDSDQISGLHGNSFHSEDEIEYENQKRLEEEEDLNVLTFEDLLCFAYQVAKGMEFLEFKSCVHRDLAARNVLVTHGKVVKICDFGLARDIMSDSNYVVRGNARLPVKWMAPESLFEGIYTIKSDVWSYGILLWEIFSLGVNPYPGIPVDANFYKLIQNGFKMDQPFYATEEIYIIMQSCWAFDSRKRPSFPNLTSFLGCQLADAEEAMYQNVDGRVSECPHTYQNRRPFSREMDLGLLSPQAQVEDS
Text: (§1) This assay uses the isolated kinase enzyme. […] Unlike kinase binding assays that measure competition for ATP, the HotSpot Kinase Assay is a functional assay that measures catalytic activity; as such it measures relative functional potency regardless of the mechanism of enzyme inhibition. This assay uses the form of the various enzymes that are easiest to express, which may not necessarily be the form of the enzyme that exist in the cell. (Sometimes the carboxy terminus has been truncated to aid in expression, or, if it is a receptor kinase, the enzyme itself is isolated from the other parts of the receptor that are involved in regulating kinase activity.)
(§2) The reagent used was as follows: Base Reaction buffer; 20 mM Hepes (pH 7.5), 10 mM MgCl2, 1 mM EGTA, 0.01% Brij35, 0.02 mg/ml BSA, 0.1 mM Na3VO4, 2 mM DTT, 1% DMSO. Required cofactors were added individually to each kinase reaction.

[2] = target: T2, IRAK1 (Homo sapiens, UniProt P51617); assay: RBC HotSpot Kinase Assay, IRAK1; format: biochemical; details: isolated kinase enzyme, 33P-ATP, P81 filter-binding
T2 construct: purchased Reaction Biology (RBC HotSpot)
T2 sequence (P51617 whole entry): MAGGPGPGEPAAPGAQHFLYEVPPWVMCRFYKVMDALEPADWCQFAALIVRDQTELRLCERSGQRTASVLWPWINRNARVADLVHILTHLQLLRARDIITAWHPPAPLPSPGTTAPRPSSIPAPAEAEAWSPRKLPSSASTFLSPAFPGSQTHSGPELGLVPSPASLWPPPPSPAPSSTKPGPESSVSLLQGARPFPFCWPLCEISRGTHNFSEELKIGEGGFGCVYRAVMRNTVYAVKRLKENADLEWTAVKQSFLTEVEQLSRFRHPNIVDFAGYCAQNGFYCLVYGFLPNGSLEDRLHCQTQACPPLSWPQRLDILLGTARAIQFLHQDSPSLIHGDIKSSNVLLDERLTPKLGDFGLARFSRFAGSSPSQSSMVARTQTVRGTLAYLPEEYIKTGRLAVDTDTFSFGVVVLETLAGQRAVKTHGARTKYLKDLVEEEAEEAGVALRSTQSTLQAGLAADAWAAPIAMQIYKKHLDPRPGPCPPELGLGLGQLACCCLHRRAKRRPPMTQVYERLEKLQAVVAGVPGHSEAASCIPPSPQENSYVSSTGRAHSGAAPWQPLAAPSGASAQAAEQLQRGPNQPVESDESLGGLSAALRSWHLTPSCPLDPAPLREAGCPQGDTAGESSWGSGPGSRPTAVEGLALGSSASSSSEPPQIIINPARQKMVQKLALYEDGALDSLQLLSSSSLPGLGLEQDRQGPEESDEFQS
Text: as §1, §2

[3] = target: T3, IRAK4 (Homo sapiens, UniProt Q9NWZ3); assay: RBC HotSpot Kinase Assay, IRAK4; format: biochemical; parameters: purchased Reaction Biology (RBC HotSpot); details: isolated kinase enzyme, 33P-ATP, P81 filter-binding
T3 sequence (Q9NWZ3 1-460): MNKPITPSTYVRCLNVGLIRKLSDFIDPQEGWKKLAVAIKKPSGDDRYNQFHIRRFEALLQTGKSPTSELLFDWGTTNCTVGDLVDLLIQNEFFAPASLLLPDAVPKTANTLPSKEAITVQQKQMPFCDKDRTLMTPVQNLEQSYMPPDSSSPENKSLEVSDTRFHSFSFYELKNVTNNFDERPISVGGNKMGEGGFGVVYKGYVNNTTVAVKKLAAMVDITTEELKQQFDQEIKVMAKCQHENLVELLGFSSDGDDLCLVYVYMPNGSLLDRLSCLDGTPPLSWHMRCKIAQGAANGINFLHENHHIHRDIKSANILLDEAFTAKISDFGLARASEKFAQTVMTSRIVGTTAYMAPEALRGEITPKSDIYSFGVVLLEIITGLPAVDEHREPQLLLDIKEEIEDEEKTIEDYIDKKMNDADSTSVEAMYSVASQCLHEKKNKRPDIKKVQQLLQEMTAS
Text: as §1, with “enzyme. This assay is very useful for determining competition of the inhibitor for ATP and/or substrates and for measuring the kinetics of enzyme inhibition.” for “enzyme.”
as §2
The reaction procedure was as follows: • 1) Substrates were prepared in freshly prepared Reaction Buffer. • 2) Any required cofactors were delivered to the substrate solution above. • 3) Kinase was delivered into the substrate solution and gently mixed. • 4) Compounds were delivered in 1000A DM into the kinase reaction mixture by Acoustic technology (Echo550; nanoliter range), followed by incubation for 20 min at room temp. • 5) 33P-ATP was delivered into the reaction mixture to initiate the reaction. • 6) The mixture was incubated for 2 hours at room temperature. • 7) Kinase activity was detected by P81 filter-binding method.

[4] = tested on: MOLM14 D835Y cells; assay: MOLM14 D835Y cell viability assay (Cell Titer Glo); format: cell-based; details: Homo sapiens, MOLM-14, 48 h, cell viability, Cell Titer Glo, 48 hours; read-out: MOLM14 D835Y IC50
Experimental: Both cell lines have activated FLT3 receptors, each of which carry additional resistance mutations in the kinase domain (D835Y and F691L, respectively).
For viability/cytotoxicity assessments, cells were seeded into 1536-well white polystyrene tissue culture-treated Greiner plates using a Multidrop Combi dispenser (ThermoFisher), in final volume 5 μL of growth media per well, at a density of 1000 cells per well. […] Plates were incubated for 48 hours at standard incubator conditions covered by a stainless steel gasketed lid to prevent evaporation. 48 hours post compound addition, 3 μL of Cell Titer Glo (Promega) were added to each well and plates were incubated at room temperature for 15 minutes with the stainless-steel lid in place. Luminescence readings were taken using a Viewlux imager (PerkinElmer) with a 2 second exposure time per plate.

SMILES	IC50 [1] [nM]	IC50 [2] [nM]	IC50 [3] [nM]	IC50 [4] [nM]
FC(F)COc1cc2ncc(-c3cncc(N[C@H]4CNC[C@@H]4F)n3)n2nc1C1CC1 [Compound 8a, 6-(6-cyclopropyl-7-(2,2-difluoroethoxy)imidazo[1,2-b]pyridazin-3-yl)-N-((3S,4S)-4-fluoropyrrolidin-3-yl)pyrazin-2-amine]	< 0.5	34	2	91
FC(F)COc1cc2ncc(-c3cncc(N[C@@H]4CCCNC4)n3)n2nc1C1CC1 [Compound 9a, (R)-6-(6-cyclopropyl-7-(2,2-difluoroethoxy)imidazo[1,2-b]pyridazin-3-yl)-N-(piperidin-3-yl)pyrazin-2-amine]	< 0.5	199	11	41
F[C@H]1CNC[C@@H]1Nc1nccc(-c2cnc3cc(OC4CC4)c(C4CC4)nn23)n1 [Compound 10a, 4-(7-cyclopropoxy-6-cyclopropylimidazo[1,2-b]pyridazin-3-yl)-N-((3S,4S)-4-fluoropyrrolidin-3-yl)pyrimidin-2-amine]	< 0.5	26	3	91
COc1cc2ncc(-c3ccnc(N[C@H]4CNC[C@@H]4F)n3)n2nc1N1CC(F)(F)C1 [Compound 16a, 4-(6-(3,3-difluoroazetidin-1-yl)-7-methoxyimidazo[1,2-b]pyridazin-3-yl)-N-((3S,4S)-4-fluoropyrrolidin-3-yl)pyrimidin-2-amine]	< 0.5	245	8	182
COc1cc2ncc(-c3ccnc(N[C@@H]4CCCNC4)n3)n2nc1N1CC(F)(F)C1 [Compound 17a, (R)-4-(6-(3,3-difluoroazetidin-1-yl)-7-methoxyimidazo[1,2-b]pyridazin-3-yl)-N-(piperidin-3-yl)pyrimidin-2-amine]	4	1420	215	182
COc1cc2ncc(-c3ccnc(N[C@H]4CNCC[C@@H]4F)n3)n2nc1N1CC(F)(F)C1 [Compound 18a, 4-(6-(3,3-difluoroazetidin-1-yl)-7-methoxyimidazo[1,2-b]pyridazin-3-yl)-N-((3S,4S)-4-fluoropiperidin-3-yl)pyrimidin-2-amine]	< 0.5	226	15	51
COc1cc2ncc(-c3ccnc(N[C@H]4CNC[C@@H]4F)n3)n2nc1C1CC(F)(F)C1 [Compound 20a, 4-(6-(3,3-difluorocyclobutyl)-7-methoxyimidazo[1,2-b]pyridazin-3-yl)-N-((3S,4S)-4-fluoropyrrolidin-3-yl)pyrimidin-2-amine]	0.7	170	12	182
COc1cc2ncc(-c3ccnc(N[C@@H]4CCCNC4)n3)n2nc1C1CC(F)(F)C1 [Compound 21a, (R)-4-(6-(3,3-difluorocyclobutyl)-7-methoxyimidazo[1,2-b]pyridazin-3-yl)-N-(piperidin-3-yl)pyrimidin-2-amine]	< 0.5	236	81	102
COc1cc2ncc(-c3ccnc(N[C@H]4CNCC[C@@H]4F)n3)n2nc1C(C)(C)O [Compound 40a, 2-(3-(2-(((3S,4S)-4-fluoropiperidin-3-yl)amino)pyrimidin-4-yl)-7-methoxyimidazo[1,2-b]pyridazin-6-yl)propan-2-ol]	3	1130	76	115
COc1cc2ncc(-c3ccnc(N[C@H]4CNC[C@@H]4F)n3)n2nc1C(C)(C)O [Compound 41a, 2-(3-(2-(((3S,4S)-4-fluoropyrrolidin-3-yl)amino)pyrimidin-4-yl)-7-methoxyimidazo[1,2-b]pyridazin-6-yl)propan-2-ol]	1	1590	36	289
COc1cc2ncc(-c3ccnc(N[C@@H]4CCCNC4)n3)n2nc1C(C)(C)O [Compound 42a, (R)-2-(7-methoxy-3-(2-(piperidin-3-ylamino)pyrimidin-4-yl)imidazo[1,2-b]pyridazin-6-yl)propan-2-ol]	10	3250	496	363
COc1cc2ncc(-c3nc(N[C@@H]4CCCNC4)ncc3F)n2nc1C(C)(C)O [Compound 43a, (R)-2-(3-(5-fluoro-2-(piperidin-3-ylamino)pyrimidin-4-yl)-7-methoxyimidazo[1,2-b]pyridazin-6-yl)propan-2-ol]	1	50	29	23
COc1cc2ncc(-c3nc(N[C@H]4CNC[C@@H]4F)ncc3F)n2nc1C(C)(C)O [Compound 44a, 2-(3-(5-fluoro-2-(((3S,4S)-4-fluoropyrrolidin-3-yl)amino)pyrimidin-4-yl)-7-methoxyimidazo[1,2-b]pyridazin-6-yl)propan-2-ol]	< 0.5	32	4	51
CC(C)(O)c1ccc2ncc(-c3nc(N[C@H]4CNC[C@@H]4F)ncc3F)n2c1 [Compound 47a, 2-(3-(5-fluoro-2-(((3S,4S)-4-fluoropyrrolidin-3-yl)amino)pyrimidin-4-yl)imidazo[1,2-a]pyridin-6-yl)propan-2-ol]	< 0.5	13	1	46
COc1cc2ncc(-c3nc(N[C@H]4CNC[C@@H]4F)ncc3F)n2nc1C1CC(F)(F)C1 [Compound 50a, 4-(6-(3,3-difluorocyclobutyl)-7-methoxyimidazo[1,2-b]pyridazin-3-yl)-5-fluoro-N-((3S,4S)-4-fluoropyrrolidin-3-yl)pyrimidin-2-amine]	< 0.5	3	0.8	29
